What all share (assay type): cell-based
The subject of one experiment is Pyricularia oryzae. As to the kind of experiment: microbe, parasite or virus in culture. The settings on record: for Observed efficacy: single active, MTP, 405 nm, 7 days after inoculation.
In the next experiment the test system is Botrytis cinerea. As to the kind of experiment: Activity against the grey mold Botrytis cinerea in the microtiterplate test.
The next experiment relates to Septoria tritici. Briefly: Activity against leaf blotch on wheat caused by Septoria tritici (microtiterplate test).
[1] abbreviates: single active, 0.063 ppm, MTP, 405 nm, 7 days after inoculation.
Where [2] appears, read: Pyricularia oryzae, 168 h, read-out: Observed efficacy.
The mark [3] stands for this setting: Botrytis cinerea, 168 h, single active, 1 ppm, MTP, 405 nm, 7 days after inoculation, read-out: Observed efficacy.
Where [4] appears, read: Botrytis cinerea, 168 h, single active, MTP, 405 nm, 7 days after inoculation, read-out: Observed efficacy.
The mark [5] stands for this setting: Zymoseptoria tritici, 168 h, single active, 0.016 ppm, MTP, 405 nm, 7 days after inoculation, read-out: Observed efficacy.
[6] abbreviates: Zymoseptoria tritici, 168 h, single active, 0.063 ppm, MTP, 405 nm, 7 days after inoculation, read-out: Observed efficacy.
The mark [7] stands for this setting: Zymoseptoria tritici, 168 h, single active, 0.25 ppm, MTP, 405 nm, 7 days after inoculation, read-out: Observed efficacy.
The mark [8] stands for this setting: Zymoseptoria tritici, 168 h, single active, MTP, 405 nm, 7 days after inoculation, read-out: Observed efficacy.
Where [9] appears, read: Botrytis cinerea, 168 h, single active, 4 ppm, MTP, 405 nm, 7 days after inoculation, read-out: Observed efficacy.

Where two headings read alike, the source gives them in different places.

`CC(O)(Cn1cncn1)c1ccc(Oc2ccc(Cl)cc2)cc1C(F)(F)F` (stereo not drawn) [Mefentrifluconazol, mefentrifluconazole, reference compound]: the Observed efficacy in the experiment with Pyricularia oryzae (0.063 ppm) and with Botrytis cinerea (setting [1]) was 49% each time.

As for `Cc1cc(C2=N[C@@H](C)C(C)(C)Oc3ccccc32)cnc1C(F)F` [Compound 1-4], the inhibition of growth at 1 ppm in the experiment with Pyricularia oryzae (setting [2]) and in the experiment on Botrytis cinerea (setting [3]) was 17% in each case.

With `CC(C)OC(=O)C(C(=O)OC(C)C)=C1SCCS1` [Isoprothiolan, isoprothiolane, reference compound], the inhibition of growth at 4 ppm in the experiment on Pyricularia oryzae (setting [2]) is 8%; in the experiment with Botrytis cinerea (Botrytis cinerea, 168 h, read-out: Observed efficacy), 8%.

Turning to `N#Cc1c[nH]cc1-c1cccc2c1OC(F)(F)O2` [Fludioxonil, fludioxonil, reference compound], the inhibition of growth at 0.25 ppm with Septoria tritici (Zymoseptoria tritici, 168 h, read-out: Observed efficacy) was 26%.

Consider `CC1COC(Cn2cncn2)(c2ccc(Oc3ccc(Cl)cc3)cc2Cl)O1` (stereo not drawn) [Difenoconazol, difenoconazole, reference compound], for which the inhibition of growth at 0.25 ppm in the experiment with Pyricularia oryzae (setting [2]) and with Botrytis cinerea (setting [4]) was 26% throughout.

As for `CC(C)NC(=O)N1CC(=O)N(c2cc(Cl)cc(Cl)c2)C1=O` [Iprodion, iprodione, reference compound], the inhibition of growth at 1 ppm with Pyricularia oryzae (setting [2]) and with Botrytis cinerea (setting [3]) was 60% throughout.

As for `Cc1cc(OC(C)C)ccc1C(=O)C(C)(C)NC(=O)c1sccc1C` [Isofetamid, isofetamid, reference compound], the Observed efficacy in the experiment with Septoria tritici (single active, 0.25 ppm, MTP, 405 nm, 7 days after inoculation) is on record as 46%.

Consider `Cc1cc(C2=N[C@H](C)C(C)(C)Oc3ccccc32)cnc1C(F)F` [Compound 1-5], for which the inhibition of growth at 0.016 ppm with Septoria tritici (setting [5]) is 0%. For the same molecule, in the experiment on Septoria tritici (setting [6]), the inhibition of growth at 0.063 ppm was 3%. Besides, in the experiment on Septoria tritici (setting [7]), the inhibition of growth at 0.25 ppm is 1%.

The molecule `CO/C=C(/C(=O)OC)c1ccccc1Oc1cc(Oc2ccccc2C#N)ncn1` [Azoxystrobin, azoxystrobin, reference compound] gave an Observed efficacy with Septoria tritici (single active, 0.016 ppm, MTP, 405 nm, 7 days after inoculation) of 0%.

For `N#Cc1ccccc1NC(=O)c1snc(Cl)c1Cl` [Isotianil, isotianil, reference compound], the Observed efficacy in the experiment on Pyricularia oryzae (4 ppm) turned out to be 6%; in the experiment with Botrytis cinerea (single active, 4 ppm, MTP, 405 nm, 7 days after inoculation), 6%.

Turning to `Cc1ccc(NC(=O)c2snnc2C)cc1Cl` [Tiadinil, tiadinil, reference compound], the inhibition of growth at 4 ppm with Septoria tritici (Zymoseptoria tritici, 168 h, single active, 4 ppm, MTP, 405 nm, 7 days after inoculation, read-out: Observed efficacy) is 24%.

As for `Cc1cc(C2=N[C@@H](C)C(C)(C)Oc3c(F)cccc32)cnc1C(F)F` [Compound 1-2], the inhibition of growth at 0.063 ppm with Pyricularia oryzae (setting [2]) is 11%; with Botrytis cinerea (Botrytis cinerea, 168 h, single active, 0.063 ppm, MTP, 405 nm, 7 days after inoculation, read-out: Observed efficacy) it was 11%; in the experiment with Septoria tritici (setting [6]) it was 0%. In addition, the inhibition of growth at 0.25 ppm with Pyricularia oryzae (setting [2]) was 11%; in the experiment with Botrytis cinerea (setting [4]), 11%; with Septoria tritici (setting [7]) it was 13%. Moreover, the inhibition of growth at 1 ppm with Pyricularia oryzae (setting [2]) and with Botrytis cinerea (setting [3]) was 35% each time. Further, in the experiment with Septoria tritici (setting [5]), the inhibition of growth at 0.016 ppm is 0%.

As to `CNC(=O)/C(=N/OC)c1ccccc1COc1cc(C)ccc1C` [Dimoxystrobin, dimoxystrobin, reference compound], the Observed efficacy in the experiment on Pyricularia oryzae (1 ppm) is 16%; in the experiment on Botrytis cinerea (single active, 1 ppm, MTP, 405 nm, 7 days after inoculation), 16%.

Regarding `Cc1cc(C2=NC3(CC3)COc3c(F)cccc32)cnc1C(F)F` [Compound 1-6], the inhibition of growth at 0.25 ppm worked out at 5% with Pyricularia oryzae (setting [2]), 5% with Botrytis cinerea (setting [4]) and 0% in the experiment on Septoria tritici (setting [7]). Also, the inhibition of growth at 1 ppm with Pyricularia oryzae (setting [2]) stood at 14%; with Botrytis cinerea (setting [3]), 14%; in the experiment with Septoria tritici (setting [8]) it was 3%.

With `Cc1cc(C2=NC(C)C(C)(C)Oc3c(F)cccc32)cnc1C(F)F` (stereo not drawn) [Compound 1-3], the inhibition of growth at 1 ppm is 19% with Pyricularia oryzae (setting [2]) and 9% in the experiment with Botrytis cinerea (setting [3]).

Molecule `Cn1cc(C(=O)Nc2ccccc2-c2cc(F)c(F)c(F)c2)c(C(F)F)n1` [Fluxapyroxad, fluxapyroxad, reference compound] returned an Observed efficacy with Septoria tritici (setting [1]) of 37%.

Consider `OC(Cc1ccccc1Cl)(Cn1nc[nH]c1=S)C1(Cl)CC1` (stereo not drawn) [Prothioconazol, prothioconazole, reference compound], for which the inhibition of growth at 4 ppm in the experiment on Pyricularia oryzae (setting [2]) and with Botrytis cinerea (setting [9]) was 35% each time. In addition, the inhibition of growth at 0.25 ppm in the experiment with Septoria tritici (setting [7]) amounted to 42%.

Turning to `Cc1cc(C2=N[C@@H](C)[C@H](C)Oc3ccccc32)cnc1C(F)F` [Compound 1-1], the inhibition of growth at 0.25 ppm in the experiment on Pyricularia oryzae (setting [2]) came out at 7%; in the experiment on Botrytis cinerea (setting [4]) it was 7%; with Septoria tritici (setting [7]) it was 26%. Also, in the experiment on Septoria tritici (setting [5]), the inhibition of growth at 0.016 ppm is 0%. For the same molecule, the inhibition of growth at 0.063 ppm in the experiment on Septoria tritici (setting [6]) is 0%.

In the case of `Cc1cccc2sc3nncn3c12` [Tricyclazol, tricyclazole, reference compound], the inhibition of growth at 4 ppm with Pyricularia oryzae (setting [2]) and with Botrytis cinerea (setting [9]) was 14% throughout. In the experiment on Septoria tritici (setting [8]), the inhibition of growth at 1 ppm amounted to 14%.

For the molecule `O=C(Nc1ccccc1-c1ccc(Cl)cc1)c1cccnc1Cl` [Boscalid, boscalid, reference compound], the inhibition of growth at 1 ppm with Septoria tritici (setting [8]) was determined as 54%.

Regarding `COC(=O)NC(=S)Nc1ccccc1NC(=S)NC(=O)OC` [Thiophanate methyl, thiophanate-methyl, reference compound], the inhibition of growth at 1 ppm with Pyricularia oryzae (setting [2]) is 9%; in the experiment on Botrytis cinerea (setting [3]), 9%; in the experiment with Septoria tritici (setting [8]) it was 10%.

On to `Cc1cc(C2=NCC(C)(C)Oc3c(F)cccc32)cnc1C(F)F` [Compound 1-7], for which the inhibition of growth at 0.25 ppm in the experiment with Pyricularia oryzae (setting [2]) and with Botrytis cinerea (setting [4]) was 0% throughout. In addition, in the experiment on Septoria tritici (setting [5]), the inhibition of growth at 0.016 ppm was 12%.

Source of the values: patent US20260174083A1, “FUNGICIDAL MIXTURE COMPRISING SUBSTITUTED PYRIDINES” (BASF SE, priority 2022, published 2026).
